This is an account of results in ChEMBL document CHEMBL1201862, “PubChem BioAssay data set” (2004).

The target of assay [1] is SUMO-activating enzyme (Homo sapiens, UniProt Q9UBT2). Kind of assay: blockers of SAE1/SAE2–UBC9 SUMO transfer – biochemical, HTRF, uHTS, primary screen (AID 2006). In kind it is protein-complex assay. In general terms: TR-FRET usually uses a lanthanide donor and a delayed reading to cut background.
Assay [2] concerns the target T1, Hexokinase HKDC1 (Homo sapiens, UniProt Q2TB90).
T1 sequence (Q2TB90 whole entry): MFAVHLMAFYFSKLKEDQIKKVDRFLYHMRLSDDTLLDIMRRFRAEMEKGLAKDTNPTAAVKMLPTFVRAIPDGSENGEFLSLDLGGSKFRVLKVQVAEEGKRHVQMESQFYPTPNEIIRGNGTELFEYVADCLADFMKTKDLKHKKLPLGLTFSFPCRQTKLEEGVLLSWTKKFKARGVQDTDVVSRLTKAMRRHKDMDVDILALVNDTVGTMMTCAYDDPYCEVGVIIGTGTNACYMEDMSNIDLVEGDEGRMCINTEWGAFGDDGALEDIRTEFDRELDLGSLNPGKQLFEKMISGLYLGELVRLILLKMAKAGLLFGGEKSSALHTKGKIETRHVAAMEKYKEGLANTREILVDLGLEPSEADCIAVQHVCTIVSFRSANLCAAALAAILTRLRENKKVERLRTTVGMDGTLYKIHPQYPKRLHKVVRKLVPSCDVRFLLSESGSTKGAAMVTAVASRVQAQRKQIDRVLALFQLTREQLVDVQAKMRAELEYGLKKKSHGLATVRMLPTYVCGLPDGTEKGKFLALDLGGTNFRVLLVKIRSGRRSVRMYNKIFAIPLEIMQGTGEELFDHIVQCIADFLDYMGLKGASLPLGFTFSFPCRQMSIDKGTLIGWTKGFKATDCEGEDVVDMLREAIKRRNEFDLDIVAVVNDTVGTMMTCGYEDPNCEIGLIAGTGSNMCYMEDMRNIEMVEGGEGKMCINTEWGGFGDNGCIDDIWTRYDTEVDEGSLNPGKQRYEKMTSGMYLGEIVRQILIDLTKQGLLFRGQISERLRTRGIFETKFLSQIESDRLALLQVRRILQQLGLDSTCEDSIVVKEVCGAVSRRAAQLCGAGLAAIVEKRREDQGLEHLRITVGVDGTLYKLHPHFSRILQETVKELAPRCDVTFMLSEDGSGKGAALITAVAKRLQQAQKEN
Description: inhibition of HKDC1 glucose phosphorylation – biochemical, W721R variant, dose response (AID 504729). In kind it is functional.

The target in assay [3] is T2, Protein RecA (Mycobacterium tuberculosis, UniProt P9WHJ3).
T2 sequence (P9WHJ3 whole entry): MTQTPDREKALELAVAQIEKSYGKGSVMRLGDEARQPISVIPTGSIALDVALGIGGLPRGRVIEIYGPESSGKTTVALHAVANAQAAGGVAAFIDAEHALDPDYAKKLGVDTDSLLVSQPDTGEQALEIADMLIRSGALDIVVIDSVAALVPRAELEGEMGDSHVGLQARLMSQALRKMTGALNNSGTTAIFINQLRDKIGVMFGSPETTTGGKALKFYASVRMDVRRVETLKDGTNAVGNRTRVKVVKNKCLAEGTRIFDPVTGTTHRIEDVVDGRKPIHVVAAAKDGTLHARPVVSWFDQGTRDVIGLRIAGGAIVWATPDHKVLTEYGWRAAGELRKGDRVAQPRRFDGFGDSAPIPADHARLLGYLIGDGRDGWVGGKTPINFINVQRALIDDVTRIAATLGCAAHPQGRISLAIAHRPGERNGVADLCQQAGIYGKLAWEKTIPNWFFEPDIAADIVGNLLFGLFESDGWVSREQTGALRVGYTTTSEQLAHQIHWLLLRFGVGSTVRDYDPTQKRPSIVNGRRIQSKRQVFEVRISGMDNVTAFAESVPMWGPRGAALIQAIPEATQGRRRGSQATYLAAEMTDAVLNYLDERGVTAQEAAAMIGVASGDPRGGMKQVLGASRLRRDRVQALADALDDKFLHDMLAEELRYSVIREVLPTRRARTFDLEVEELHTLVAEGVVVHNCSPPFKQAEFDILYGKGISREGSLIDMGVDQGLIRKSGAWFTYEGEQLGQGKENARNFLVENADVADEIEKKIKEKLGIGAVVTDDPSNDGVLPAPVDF
Description: Fluorescence Cell-Free Homogeneous Dose Retest to Identify Inhibitors of RecA-Intein Splicing Activity. [Related pubchem assays (depositor defined):AID2097, AID2223, AID489010, AID492950]. In kind it is functional.

Assay [4] concerns the target Serine/threonine-protein kinase PLK3 (Homo sapiens, UniProt Q9H4B4). It counts as functional.
In assay [5] the target is Protein kinase C delta type (Homo sapiens, UniProt Q05655). It counts as functional.
For assay [6], the target named is RAC-alpha serine/threonine-protein kinase (Homo sapiens, UniProt P31749). It counts as functional.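 Further: AKT1 affinity measured as one member of a kinome-wide kinase profiling panel.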
Assay [7] addresses Glycogen synthase kinase-3 beta (Homo sapiens, UniProt P49841). It counts as functional.
In assay [8] the target is cGMP-dependent protein kinase 1 (Homo sapiens, UniProt Q13976). In kind it is functional.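 Further: value from a kinome panel screen with PRKG1 as the panel member.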
The target in assay [9] is Eukaryotic elongation factor 2 kinase (Homo sapiens, UniProt O00418). In kind it is functional.
Assay [10] deals with SRSF protein kinase 1 (Homo sapiens, UniProt Q96SB4). In kind it is functional.
Assay [11] concerns the target Tyrosine-protein kinase BTK (Homo sapiens, UniProt Q06187). In kind it is functional.
The target of assay [12] is Casein kinase I isoform alpha (Homo sapiens, UniProt P48729). In kind it is functional.
The target in assay [13] is Casein kinase I isoform gamma-1 (Homo sapiens, UniProt Q9HCP0). It counts as functional.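 Further: measured as the CSNK1G1 member of a kinome profiling panel.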
The target of assay [14] is Serine/threonine-protein kinase N2 (Homo sapiens, UniProt Q16513). It counts as functional.
For assay [15], the target named is Tyrosine-protein kinase Blk (Homo sapiens, UniProt P51451). In kind it is functional.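 Further: obtained as one member of a kinome-wide kinase assay panel.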
Assay [16] concerns the target Protein-tyrosine kinase 2-beta (Homo sapiens, UniProt Q14289). In kind it is functional.
The target of assay [17] is Mitogen-activated protein kinase 13 (Homo sapiens, UniProt O15264). It counts as functional.
Assay [18] concerns the target Mitogen-activated protein kinase kinase kinase 20 (Homo sapiens, UniProt Q9NYL2). It counts as functional.
Assay [19] has as its target MAP kinase-interacting serine/threonine-protein kinase 2 (Homo sapiens, UniProt Q9HBH9). It counts as functional.
Assay [20] has as its target Interleukin-1 receptor-associated kinase 1 (Homo sapiens, UniProt P51617). It counts as functional.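 Further: IRAK1 tested as one member of a kinome panel.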
The target in assay [21] is Tyrosine-protein kinase FRK (Homo sapiens, UniProt P42685). In kind it is functional.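 Further: FRK tested as one member of a kinome panel.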

SMILES strings stand for the structures. Activity calls are given as the source filed them.

Chain of Mitogen-activated protein kinase 13 (O15264 whole entry): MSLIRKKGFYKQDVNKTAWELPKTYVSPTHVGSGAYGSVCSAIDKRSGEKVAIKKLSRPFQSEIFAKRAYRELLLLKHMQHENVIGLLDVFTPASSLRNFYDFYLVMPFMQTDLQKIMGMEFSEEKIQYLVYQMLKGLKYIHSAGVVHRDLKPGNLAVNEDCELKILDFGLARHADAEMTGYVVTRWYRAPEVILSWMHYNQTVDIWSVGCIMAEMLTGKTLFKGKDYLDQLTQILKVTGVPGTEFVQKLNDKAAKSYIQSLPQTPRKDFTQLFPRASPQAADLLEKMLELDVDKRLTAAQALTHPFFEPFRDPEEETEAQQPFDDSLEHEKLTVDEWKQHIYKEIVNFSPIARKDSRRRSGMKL
Chain of Interleukin-1 receptor-associated kinase 1 (P51617 whole entry): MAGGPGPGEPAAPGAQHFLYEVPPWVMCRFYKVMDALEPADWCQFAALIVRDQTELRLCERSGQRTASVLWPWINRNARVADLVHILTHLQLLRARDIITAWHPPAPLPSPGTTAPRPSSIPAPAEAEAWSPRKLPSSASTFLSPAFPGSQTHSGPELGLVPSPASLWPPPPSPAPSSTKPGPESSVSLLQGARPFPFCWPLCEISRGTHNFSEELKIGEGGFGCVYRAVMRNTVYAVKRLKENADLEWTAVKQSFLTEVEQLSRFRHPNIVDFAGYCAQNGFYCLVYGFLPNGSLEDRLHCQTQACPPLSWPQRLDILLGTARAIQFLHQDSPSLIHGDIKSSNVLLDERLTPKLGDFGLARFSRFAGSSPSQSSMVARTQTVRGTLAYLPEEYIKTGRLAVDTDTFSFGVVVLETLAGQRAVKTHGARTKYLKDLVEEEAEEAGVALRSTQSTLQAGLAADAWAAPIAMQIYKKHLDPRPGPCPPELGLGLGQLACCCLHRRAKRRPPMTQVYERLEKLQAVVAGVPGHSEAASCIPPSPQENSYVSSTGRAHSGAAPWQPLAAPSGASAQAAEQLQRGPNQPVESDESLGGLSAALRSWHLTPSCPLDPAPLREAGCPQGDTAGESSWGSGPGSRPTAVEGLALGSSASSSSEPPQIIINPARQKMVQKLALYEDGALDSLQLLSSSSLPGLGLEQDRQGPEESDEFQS
Chain of Serine/threonine-protein kinase PLK3 (Q9H4B4 whole entry): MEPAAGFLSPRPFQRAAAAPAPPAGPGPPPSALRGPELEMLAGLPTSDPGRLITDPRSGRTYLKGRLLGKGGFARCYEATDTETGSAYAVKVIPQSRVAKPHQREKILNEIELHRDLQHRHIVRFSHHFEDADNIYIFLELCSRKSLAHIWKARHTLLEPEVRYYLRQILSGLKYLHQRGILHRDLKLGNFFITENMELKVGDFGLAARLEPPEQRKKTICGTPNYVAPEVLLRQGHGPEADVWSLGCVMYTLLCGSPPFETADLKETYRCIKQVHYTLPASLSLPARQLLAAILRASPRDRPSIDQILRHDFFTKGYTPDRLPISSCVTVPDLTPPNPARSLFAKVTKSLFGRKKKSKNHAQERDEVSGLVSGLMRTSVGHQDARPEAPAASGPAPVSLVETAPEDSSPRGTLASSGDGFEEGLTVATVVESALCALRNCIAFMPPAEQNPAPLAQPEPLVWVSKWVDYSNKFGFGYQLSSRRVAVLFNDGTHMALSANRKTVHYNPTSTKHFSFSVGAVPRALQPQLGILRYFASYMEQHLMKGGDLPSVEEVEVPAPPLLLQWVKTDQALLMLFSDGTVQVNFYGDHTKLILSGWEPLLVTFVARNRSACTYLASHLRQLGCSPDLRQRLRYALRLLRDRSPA
Chain of Tyrosine-protein kinase BTK (Q06187 whole entry, canonical isoform): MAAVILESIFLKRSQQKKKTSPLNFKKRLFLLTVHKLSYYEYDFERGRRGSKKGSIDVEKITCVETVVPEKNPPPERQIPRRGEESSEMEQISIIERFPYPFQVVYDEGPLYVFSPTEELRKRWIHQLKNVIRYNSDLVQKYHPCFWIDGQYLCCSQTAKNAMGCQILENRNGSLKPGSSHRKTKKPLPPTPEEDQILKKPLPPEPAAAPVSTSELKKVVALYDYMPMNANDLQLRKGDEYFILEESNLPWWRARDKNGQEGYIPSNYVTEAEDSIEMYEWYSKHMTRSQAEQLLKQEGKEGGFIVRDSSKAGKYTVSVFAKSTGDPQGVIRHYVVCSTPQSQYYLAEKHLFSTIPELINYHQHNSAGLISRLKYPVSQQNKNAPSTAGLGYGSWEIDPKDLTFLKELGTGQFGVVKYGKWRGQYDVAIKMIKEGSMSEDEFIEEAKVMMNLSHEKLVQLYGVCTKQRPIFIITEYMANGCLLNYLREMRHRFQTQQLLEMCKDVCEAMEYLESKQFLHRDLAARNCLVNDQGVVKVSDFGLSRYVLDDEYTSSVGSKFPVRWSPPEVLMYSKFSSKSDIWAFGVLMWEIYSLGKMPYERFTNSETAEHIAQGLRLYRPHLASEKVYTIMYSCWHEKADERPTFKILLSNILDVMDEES
Chain of SUMO-activating enzyme (Q9UBE0 whole entry): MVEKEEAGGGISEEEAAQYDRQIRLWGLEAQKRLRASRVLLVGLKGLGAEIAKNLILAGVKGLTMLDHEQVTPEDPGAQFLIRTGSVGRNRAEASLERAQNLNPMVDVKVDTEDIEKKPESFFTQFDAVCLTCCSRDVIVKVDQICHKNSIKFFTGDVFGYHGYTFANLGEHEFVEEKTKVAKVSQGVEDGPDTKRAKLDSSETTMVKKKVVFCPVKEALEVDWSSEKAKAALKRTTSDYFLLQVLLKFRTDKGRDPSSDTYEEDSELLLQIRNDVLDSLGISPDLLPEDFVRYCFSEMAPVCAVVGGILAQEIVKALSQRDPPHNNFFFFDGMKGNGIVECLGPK
Chain of SUMO-activating enzyme (Q9UBT2 whole entry): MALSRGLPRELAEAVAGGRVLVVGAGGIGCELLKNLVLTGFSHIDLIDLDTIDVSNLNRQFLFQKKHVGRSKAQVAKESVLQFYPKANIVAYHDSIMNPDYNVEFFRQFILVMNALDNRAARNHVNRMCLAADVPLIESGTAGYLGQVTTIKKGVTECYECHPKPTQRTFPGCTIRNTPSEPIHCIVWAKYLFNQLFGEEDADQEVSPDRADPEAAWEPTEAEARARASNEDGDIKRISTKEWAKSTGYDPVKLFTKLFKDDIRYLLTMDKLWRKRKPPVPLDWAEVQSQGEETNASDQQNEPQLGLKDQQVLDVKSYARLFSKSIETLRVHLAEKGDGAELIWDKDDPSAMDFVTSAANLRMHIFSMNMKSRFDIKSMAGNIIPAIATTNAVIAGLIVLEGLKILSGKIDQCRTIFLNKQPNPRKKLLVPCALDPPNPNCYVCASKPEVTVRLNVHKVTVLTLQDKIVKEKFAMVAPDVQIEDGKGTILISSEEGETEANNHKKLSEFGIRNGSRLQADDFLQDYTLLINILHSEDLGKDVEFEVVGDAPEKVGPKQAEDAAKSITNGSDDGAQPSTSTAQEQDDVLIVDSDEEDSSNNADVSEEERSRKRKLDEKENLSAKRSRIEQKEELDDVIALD
Chain of Eukaryotic elongation factor 2 kinase (O00418 whole entry): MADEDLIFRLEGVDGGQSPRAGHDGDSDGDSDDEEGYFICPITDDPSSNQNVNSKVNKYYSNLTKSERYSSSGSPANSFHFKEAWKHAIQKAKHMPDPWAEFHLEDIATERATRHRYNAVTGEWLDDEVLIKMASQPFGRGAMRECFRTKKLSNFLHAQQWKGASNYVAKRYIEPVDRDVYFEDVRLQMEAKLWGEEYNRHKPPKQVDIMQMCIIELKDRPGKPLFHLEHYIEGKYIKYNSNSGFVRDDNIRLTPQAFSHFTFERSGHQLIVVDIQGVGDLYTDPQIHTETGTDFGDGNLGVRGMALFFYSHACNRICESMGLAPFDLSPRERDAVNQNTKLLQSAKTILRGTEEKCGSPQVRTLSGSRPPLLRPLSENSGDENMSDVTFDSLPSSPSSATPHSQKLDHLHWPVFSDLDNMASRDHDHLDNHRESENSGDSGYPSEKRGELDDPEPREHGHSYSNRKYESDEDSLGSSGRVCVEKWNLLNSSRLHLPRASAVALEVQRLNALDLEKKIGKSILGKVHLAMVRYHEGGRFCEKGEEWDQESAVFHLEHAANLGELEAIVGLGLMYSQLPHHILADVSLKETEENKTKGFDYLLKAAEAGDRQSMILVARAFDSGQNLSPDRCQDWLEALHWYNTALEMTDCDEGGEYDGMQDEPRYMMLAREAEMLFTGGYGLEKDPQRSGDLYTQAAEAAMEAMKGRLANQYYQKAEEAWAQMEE
Chain of Casein kinase I isoform gamma-1 (Q9HCP0 whole entry, canonical isoform): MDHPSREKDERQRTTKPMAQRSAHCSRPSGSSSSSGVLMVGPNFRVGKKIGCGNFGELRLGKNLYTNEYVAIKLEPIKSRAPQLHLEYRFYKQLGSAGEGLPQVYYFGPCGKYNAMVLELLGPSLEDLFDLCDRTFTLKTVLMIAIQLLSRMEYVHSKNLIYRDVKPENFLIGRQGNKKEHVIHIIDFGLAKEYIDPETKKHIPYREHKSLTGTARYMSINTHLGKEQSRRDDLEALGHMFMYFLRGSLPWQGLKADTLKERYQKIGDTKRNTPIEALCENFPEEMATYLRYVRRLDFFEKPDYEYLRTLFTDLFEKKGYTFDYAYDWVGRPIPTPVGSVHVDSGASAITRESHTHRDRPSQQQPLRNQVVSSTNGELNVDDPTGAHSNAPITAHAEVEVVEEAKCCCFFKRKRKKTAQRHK
Chain of Tyrosine-protein kinase Blk (P51451 whole entry): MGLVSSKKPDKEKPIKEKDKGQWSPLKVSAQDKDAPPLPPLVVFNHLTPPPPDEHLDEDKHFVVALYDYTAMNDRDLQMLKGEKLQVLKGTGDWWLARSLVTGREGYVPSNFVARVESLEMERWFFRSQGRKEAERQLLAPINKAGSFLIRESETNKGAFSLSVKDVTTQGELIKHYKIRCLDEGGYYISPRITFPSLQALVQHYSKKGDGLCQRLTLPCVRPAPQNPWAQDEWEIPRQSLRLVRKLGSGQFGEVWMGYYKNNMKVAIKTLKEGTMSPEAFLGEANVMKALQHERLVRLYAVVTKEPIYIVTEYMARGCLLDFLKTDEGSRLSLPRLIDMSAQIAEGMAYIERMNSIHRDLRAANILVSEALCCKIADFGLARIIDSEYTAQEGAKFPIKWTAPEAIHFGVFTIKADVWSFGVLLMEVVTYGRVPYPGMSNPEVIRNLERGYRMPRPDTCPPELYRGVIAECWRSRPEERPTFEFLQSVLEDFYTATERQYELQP

As usually defined, the IC50 is the concentration that inhibits the measured activity by half. As a reminder, the EC50 is the concentration that produces a half-maximal response. Take `CC(=O)NC1C(=O)N(CCN2CCOCC2)c2ccc(Cl)cc21` (stereo unspecified): the values for the IC50 in assay [1] and in assay [2] were 13400 nM (active) and 6750 nM (active), respectively. In addition, the EC50 in [3] was 10500 nM (active).

What is called Ki is a measure of affinity in units of concentration, obtained from inhibition or displacement. Turning to `Cc1c(C=O)c(O)n2c(nc3ccccc32)c1C#N`, the Ki is 794 nM (active) in assay [4], > 7940 nM (inactive) in assay [5], > 7940 nM (inactive) in assay [6] and 3160 nM (active) in assay [7].

Consider `Cc1n[nH]c2cnc(-c3cncc(OCC(N)Cc4cccc(C(F)(F)F)c4)c3)cc12` (stereo unspecified), for which the Ki in [8] was 15.8 nM (active); in assay [9], > 3980 nM (inactive); in assay [10] it was 631 nM (active); in assay [11], > 1260 nM (inactive); in assay [12] it was 2510 nM (active); in assay [13], 63.1 nM (active). In addition, the Ki in assay [14] is 25.1 nM (active); in assay [15], > 1580 nM (inactive); in [16] it was 1580 nM (active); in assay [17], 1580 nM (active); in [18] it was > 7940 nM (inactive); in [19], 631 nM (active). In addition, the Ki is 316 nM (active) in assay [20] and > 2510 nM (inactive) in [21].
